The source of these data is patent US20240043396A1, “METHODS OF TREATING OCULAR FIBROTIC PATHOLOGIES” (Mayo Foundation for Medical Education and Research, priority 2021, published 2024).

Common to all, as to format: cell-based, human
For experiment [1], the system named is ARPE-19 cells. The experiment in a line: TGFβ-induced EMT in cultured RPE cells (morphology, qPCR of mesenchymal/profibrotic genes). The note with it: ARPE-19, 5 ng/ml TGF-β1, 24 h, 0% FBS; 1 μM CTC-6 or 10 μM MS-9. How it is done:
Cell culture: ARPE-19 cells were purchased from ATCC (Manassas, VA, USA) were cultured in Eagle's minimal essential medium (EMEM) containing 10% fetal bovine serum (FBS) and antibiotic-antimycotic (Thermo Fisher Scientific) unless otherwise noted.
qPCR analysis: ARPE-19 cells were plated on tissue culture dishes (Thermo Fisher Scientific, 60×15 mm) in EMEM containing 10% FBS and allowed to attach and grow for 24 h. Cells were stimulated with 5 ng/ml TGF-β1 and 10 μM MS-9 or 1 μM CTC-6 in EMEM containing 0% FBS for 24 h prior to RNA isolation using the RNeasy Plus Mini Kit (Qiagen, Hilden, Germany) according to the manufacturer's instructions. Isolated RNA (500 ng) was then used to synthesize cDNA using SuperScript VILO (Invitrogen, Carlsbad, CA, USA). Quantitative PCR (qPCR) was performed using FastStart Essential DNA Green Master and analyzed with LightCycler 96 (Roche, Basel, Switzerland). Data are expressed as a fold change by ΔΔCt relative to the level of the GAPDH housekeeping gene, and normalized to control.
As expected, TGFβ stimulated morphological changes consistent with EMT (FIG. 2A) and enhanced expression of ECM genes: COL1A1 and COL3A1, connective tissue growth factor (CTGF) and alpha-smooth muscle actin (ACTA2) (FIG. 2B).

In experiment [2] the test system is ARPE-19 cells. The experiment in a line: qPCR of profibrotic gene expression in ARPE-19 cells ±TGFβ. How it is done:
Cell culture: The human RPE cell line ARPE-19 was purchased from ATCC and cultured in Dulbecco's Modified Eagle Medium/Nutrient Mixture F-12 (DMEM/F-12) supplemented with 2.50 mM L-Glutamine, 15 mM HEPES Buffer, 10% fetal bovine serum (FBS), and 1% Antibiotic-Antimycotic (Gibco), unless otherwise noted. Cells were maintained in a humidified 37° C., 5% CO2 incubator. All experiments were performed with cells at passage 3-6. Chemicals and Reagents: dimethyl sulfoxide (DMSO) was purchased from Fisher Scientific and used to solubilize fenoldopam and SCH 39166. 2-mercaptoethanol was purchased from Bio-Rad Laboratories and added to RLT buffer prior to RNA isolation, as per Qiagen instructions. Fenoldopam and SCH 39166 were purchased from Cayman Chemical Company. TGFβ was purchased from InvivoGen. Fenoldopam, like a majority of […], has a characteristically short half-life. To take this into account we changed media daily to assess the efficacy of fenoldopam to inhibit fibrotic activation in vitro. RNA Isolation/qPCR Analysis: ARPE-19 cells were plated into 12 well plates (100,000 cells/well) and allowed to attach. Media was removed and replaced with the media specified in the “Cell Culture” section above, minus FBS. Cells were treated for 24 hours ±TGFβ (10 ng/mL), 10 μM fenoldopam, and 3 μM SCH 39166. RNA was isolated using the RNeasy Plus Mini Kit (Qiagen) and the manufacturer's protocol. Isolated RNA was converted to cDNA using the SuperScript VILO cDNA Synthesis Kit (Invitrogen) and the PTC-200 Peltier Thermal Cycler (MJ Research). Quantitative PCR (qPCR) was performed using FastStart Essential DNA Green Master (Roche) and LightCycler 96 (Roche).
Background: In qPCR the cycle at which signal appears reflects the starting amount.

Experiment [3] deals with ARPE-19 cells. Description: Wound healing (wound migration) assay. To be noted: ARPE-19, ±TGFβ 10 ng/mL, 10 μM fenoldopam, 0-72 hours, media changed every 24 hours. As for the experimental part:
Cell culture: The human RPE cell line ARPE-19 was purchased from ATCC and cultured in Dulbecco's Modified Eagle Medium/Nutrient Mixture F-12 (DMEM/F-12) supplemented with 2.50 mM L-Glutamine, 15 mM HEPES Buffer, 10% fetal bovine serum (FBS), and 1% Antibiotic-Antimycotic (Gibco), unless otherwise noted. Cells were maintained in a humidified 37° C., 5% CO2 incubator. All experiments were performed with cells at passage 3-6. Wound Healing Assay: ARPE-19 cells were plated confluent into a 12-well plate (300,000 cells/well) and allowed to attach. Cells were exposed to a single scratch made with a p200 pipette tip. Media was removed and replaced with the media specified in the “Cell Culture” section above, without FBS. Cells were treated ±TGFβ (10 ng/mL), 10 μM fenoldopam replacing media conditions every 24 hours for wells treated with fenoldopam. Cells were imaged after treatment for 0, 24, 48, and 72 hours. Cells were imaged with an inverted phase-contract microscope and wound area was measured using ImageJ software as previously described.

The test system of experiment [4] is ARPE-19 cells. Description: Proliferation assay (CellTiter-Fluor). To be noted: ARPE-19, ±2% FBS, 10 μM fenoldopam, 4 days. As for the experimental part:
(§1) Cell culture: The human RPE cell line ARPE-19 was purchased from ATCC and cultured in Dulbecco's Modified Eagle Medium/Nutrient Mixture F-12 (DMEM/F-12) supplemented with 2.50 mM L-Glutamine, 15 mM HEPES Buffer, 10% fetal bovine serum (FBS), and 1% Antibiotic-Antimycotic (Gibco), unless otherwise noted. Cells were maintained in a humidified 37° C., 5% CO2 incubator. All experiments were performed with cells at passage 3-6. Proliferation and Live/Dead Assays: ARPE-19 cells were plated into 96-well plates (1,000 cells/well) and allowed to attach. Media was removed and replaced with the media specified in the “Cell Culture” section above, with reduced FBS. Cells were treated for four days ±2% FBS, and 10 μM fenoldopam, replacing media conditions every 24 hours for wells treated with fenoldopam. After four days, CellTiter-Fluor™ (Promega) was added to each well according to the manufacturer and measured on a Flexstation 3 (Molecular Devices) plate reader for the proliferation assay. For the LIVE/DEAD™ assay, each component of the kit (Thermo Fisher Scientific) was added, then cells were incubated for 30 minutes. Fluorescent images were then taken using a Cytation 5 imaging reader (BioTek) and quantified for cytotoxicity/viability.

The subject of experiment [5] is ARPE-19 cells. The experiment in a line: LIVE/DEAD assay. To be noted: ARPE-19, ±2% FBS, 10 μM fenoldopam, 4 days. As for the experimental part:
as §1

Experiment [6] deals with ARPE-19 cells. The experiment in a line: Fibronectin deposition (immunofluorescence). The note with it: ARPE-19, ±TGFβ 10 ng/mL, 10 μM fenoldopam, 4 days. As for the experimental part:
Cell culture: The human RPE cell line ARPE-19 was purchased from ATCC and cultured in Dulbecco's Modified Eagle Medium/Nutrient Mixture F-12 (DMEM/F-12) supplemented with 2.50 mM L-Glutamine, 15 mM HEPES Buffer, 10% fetal bovine serum (FBS), and 1% Antibiotic-Antimycotic (Gibco), unless otherwise noted. Cells were maintained in a humidified 37° C., 5% CO2 incubator. All experiments were performed with cells at passage 3-6. Fibronectin Deposition: ARPE-19 cells were plated into 96-well plates (10,000 cells/well) and allowed to attach. Media was removed and replaced with the media specified in the “Cell Culture” section above, without FBS. Cells were treated for four days ±TGFβ (10 ng/mL), 10 μM fenoldopam, replacing media conditions every 24 hours for wells treated with fenoldopam. Cells were fixed with 10% neutral buffered formalin (Sigma-Aldrich) for 15 minutes. Cells were permeabilized with 0.25% Triton X-100 (Sigma-Aldrich) and blocked with 1% BSA for 1 hour. Cells were incubated with mouse monoclonal IgG3 primary antibodies against fibronectin (Santa Cruz Biotechnology), which were diluted 1:400 in 0.25% Triton X-100 (Sigma-Aldrich) with 1% BSA. Cells were incubated with primary antibodies either in 4° C. overnight or at room temperature for 2 hours. […] Immunofluorescence was measured using a Cytation 5 imaging reader (BioTek).

For the molecule `NCC1OC(c2ccncc2)Cc2c1ccc(O)c2O` (centres unmarked) [CTC-6], the “markers of EMT (morphology; COL1A1, COL3A1, CTGF, ACTA2 expression)” value in the experiment on ARPE-19 cells [1] is listed as “blocked markers of EMT”.

As to `CN1CCc2cc(Cl)c(O)cc2[C@H]2c3ccccc3CC[C@@H]21` [SCH 39166], in the experiment on ARPE-19 cells [2] (ARPE-19, TGFβ 10 ng/mL + 3 μM SCH 39166, 24 hours), the “effect of D5 antagonist alone in the presence of TGFβ on profibrotic gene expression” value is on record as “no effect”. Further, the “effect of D5 antagonist on the antifibrotic effects of fenoldopam (profibrotic gene expression)” value in the experiment with ARPE-19 cells [2] (ARPE-19, TGFβ 10 ng/mL + 10 μM fenoldopam + 3 μM SCH 39166, 24 hours) is listed as “surmount the antifibrotic effects of fenoldopam”.

`Oc1ccc(C2CNCCc3c2cc(O)c(O)c3Cl)cc1` (centres unmarked) [fenoldopam]: the “expression of COL1A1, ACTA2, and FN1 compared to TGFβ exclusively” value with ARPE-19 cells [2] (ARPE-19, TGFβ 10 ng/mL, 10 μM fenoldopam, 24 hours) is reported as “significant decrease”. Besides, the “antifibrotic response in wound migration assay” value in the experiment on ARPE-19 cells [3] is “robust antifibrotic response”. In the experiment with ARPE-19 cells [4], the “antifibrotic response in proliferation assay” value was “robust antifibrotic response”. In the experiment on ARPE-19 cells [5], the “antifibrotic response in live/dead assay” value is reported as “robust antifibrotic response”. Also, the “antifibrotic response in fibronectin deposition assay” value in the experiment with ARPE-19 cells [6] is recorded as “robust antifibrotic response”.
